Data reported in ChEMBL document CHEMBL4371025, “Discovery and evaluation of novel FAAH inhibitors in neuropathic pain model” (Bioorg Med Chem Lett, 2019).

Assays:
[1] = Drug level in plasma of Sprague-Dawley rat at 10 mg/kg, po administered as single dose via gavage measured at 2 hrs by LC-MS/MS analysis; assay type: ADME, organism-based
[2] = Ratio of AUC (0 to 48 hrs) in brain to plasma of Sprague-Dawley rat at 10 mg/kg, po administered as single dose via gavage by LC-MS/MS analysis; assay type: ADME, organism-based; settings: brain and plasma, read-out: Ratio AUC
[3] = Intrinsic metabolic stability in human liver microsomes assessed as metabolic turnover rate per mg protein at 1 uM preincubated for 5 mins followed by NADPH cofactor addition and measured after 30 mins by LC-MS/MS analysis; assay type: ADME, Microsome; settings: 0.5 h
Cytochrome P450 2C9 = Cytochrome P450 2C9 (Homo sapiens, UniProt P11712); assay: Inhibition of CYP2C9 in human liver microsomes using diclofenac as substrate preincubated for 5 mins followed by NADPH cofactor addition and measured after 10 mins by LC-MS/MS analysis; assay type: ADME
Cytochrome P450 2C9, sequence (P11712 whole entry): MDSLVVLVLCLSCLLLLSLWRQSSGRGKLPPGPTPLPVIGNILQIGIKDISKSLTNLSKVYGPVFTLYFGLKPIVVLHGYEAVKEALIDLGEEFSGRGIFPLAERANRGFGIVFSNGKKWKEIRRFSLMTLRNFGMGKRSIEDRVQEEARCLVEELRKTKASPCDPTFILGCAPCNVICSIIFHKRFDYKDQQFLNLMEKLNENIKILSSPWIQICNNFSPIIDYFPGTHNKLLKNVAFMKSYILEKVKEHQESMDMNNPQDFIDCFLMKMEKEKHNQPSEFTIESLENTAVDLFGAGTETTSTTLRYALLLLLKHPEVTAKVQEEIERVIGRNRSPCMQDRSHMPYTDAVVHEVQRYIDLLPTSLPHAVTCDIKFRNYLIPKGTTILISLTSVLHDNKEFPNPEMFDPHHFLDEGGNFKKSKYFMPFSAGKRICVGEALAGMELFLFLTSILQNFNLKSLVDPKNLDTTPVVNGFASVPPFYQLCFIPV

[4] = Drug level in plasma of Sprague-Dawley rat at 10 mg/kg, po administered as single dose via gavage measured at 32 hrs by LC-MS/MS analysis; assay type: ADME, organism-based
[5] = AUC (0 to 48 hrs) in Sprague-Dawley rat at 3 mg/kg, iv administered as single dose by LC-MS/MS analysis; assay type: ADME, organism-based; design: dose 3 mg/kg, time < 48 hr, route intravenous; settings: in vivo
[6] = Drug level in liver of Sprague-Dawley rat at 10 mg/kg, po administered as single dose via gavage measured at 32 hrs by LC-MS/MS analysis; assay type: ADME, organism-based; settings: read-out: Drug uptake
[7] = Cmax in Sprague-Dawley rat at 10 mg/kg, po administered as single dose via gavage by LC-MS/MS analysis; assay type: ADME, organism-based; design: dose 10 mg/kg, route oral; settings: in vivo
[8] = Drug level in liver of Sprague-Dawley rat at 10 mg/kg, po administered as single dose via gavage measured at 24 hrs by LC-MS/MS analysis; assay type: ADME, organism-based; settings: read-out: Drug uptake
[9] = Intrinsic metabolic stability in rat liver microsomes assessed as metabolic turnover over per mg protein at 1 uM preincubated for 5 mins followed by NADPH cofactor addition and measured after 30 mins by LC-MS/MS analysis; assay type: ADME, Microsome; settings: 0.5 h
[10] = Volume of distribution at steady state in Sprague-Dawley rat at 3 mg/kg, iv administered as single dose by LC-MS/MS analysis; assay type: ADME, organism-based; settings: in vivo, read-out: Vdss
[11] = Drug level in liver of Sprague-Dawley rat at 10 mg/kg, po administered as single dose via gavage measured at 2 hrs by LC-MS/MS analysis; assay type: ADME, organism-based; settings: read-out: Drug uptake
Cytochrome P450 1A2 = biological target: T1, Cytochrome P450 1A2 (Homo sapiens, UniProt P05177); assay: Inhibition of CYP1A2 in human liver microsomes using phenacetin as substrate preincubated for 5 mins followed by NADPH cofactor addition and measured after 10 mins by LC-MS/MS analysis; assay type: ADME
T1 sequence (P05177 whole entry): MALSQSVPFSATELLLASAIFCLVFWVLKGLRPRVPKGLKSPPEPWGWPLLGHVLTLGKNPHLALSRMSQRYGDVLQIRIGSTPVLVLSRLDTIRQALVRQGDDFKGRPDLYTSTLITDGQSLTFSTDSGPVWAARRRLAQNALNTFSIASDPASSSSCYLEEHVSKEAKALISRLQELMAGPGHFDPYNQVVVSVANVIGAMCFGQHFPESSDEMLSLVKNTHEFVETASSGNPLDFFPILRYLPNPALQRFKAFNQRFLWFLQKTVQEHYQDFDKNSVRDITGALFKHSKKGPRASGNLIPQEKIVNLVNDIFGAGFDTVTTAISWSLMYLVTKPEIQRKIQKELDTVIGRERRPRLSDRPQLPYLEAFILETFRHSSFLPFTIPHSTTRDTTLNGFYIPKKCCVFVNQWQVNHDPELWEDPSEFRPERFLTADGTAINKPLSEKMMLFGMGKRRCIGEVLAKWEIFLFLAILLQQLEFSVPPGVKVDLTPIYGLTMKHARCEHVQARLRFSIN

[12] = Elimination half life in Sprague-Dawley rat at 3 mg/kg, iv administered as single dose by LC-MS/MS analysis; assay type: ADME, organism-based; settings: in vivo, read-out: beta t1/2 (converted)
Cytochrome P450 2D6 = Cytochrome P450 2D6 (Homo sapiens, UniProt P10635); assay: Inhibition of CYP2D6 in human liver microsomes using dextromethorphan as substrate preincubated for 5 mins followed by NADPH cofactor addition and measured after 10 mins by LC-MS/MS analysis; assay type: ADME
Cytochrome P450 2D6, sequence (P10635 whole entry): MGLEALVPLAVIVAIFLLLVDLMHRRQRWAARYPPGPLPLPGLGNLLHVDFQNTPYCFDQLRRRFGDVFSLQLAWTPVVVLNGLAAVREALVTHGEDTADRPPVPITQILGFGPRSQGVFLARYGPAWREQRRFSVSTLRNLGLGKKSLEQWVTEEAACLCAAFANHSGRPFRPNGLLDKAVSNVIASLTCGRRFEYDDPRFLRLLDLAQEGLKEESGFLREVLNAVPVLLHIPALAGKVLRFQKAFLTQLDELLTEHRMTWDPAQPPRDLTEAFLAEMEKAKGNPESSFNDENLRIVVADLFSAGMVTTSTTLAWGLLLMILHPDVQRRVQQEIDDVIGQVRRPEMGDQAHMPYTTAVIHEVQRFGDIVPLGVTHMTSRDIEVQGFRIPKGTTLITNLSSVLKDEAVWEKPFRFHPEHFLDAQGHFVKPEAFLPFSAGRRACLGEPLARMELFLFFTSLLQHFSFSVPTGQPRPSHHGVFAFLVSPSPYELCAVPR

[13] = Drug level in liver of Sprague-Dawley rat at 10 mg/kg, po administered as single dose via gavage measured at 4 hrs by LC-MS/MS analysis; assay type: ADME, organism-based; settings: read-out: Drug uptake
[14] = Drug level in plasma of Sprague-Dawley rat at 10 mg/kg, po administered as single dose via gavage measured at 4 hrs by LC-MS/MS analysis; assay type: ADME, organism-based
[15] = AUC (0 to 48 hrs) in liver of Sprague-Dawley rat at 10 mg/kg, po administered as single dose via gavage by LC-MS/MS analysis; assay type: ADME, organism-based; design: time < 48 hr, dose 10 mg/kg, route oral
[16] = Drug level in liver of Sprague-Dawley rat at 10 mg/kg, po administered as single dose via gavage measured at 8 hrs by LC-MS/MS analysis; assay type: ADME, organism-based; settings: read-out: Drug uptake
[17] = Drug level in brain of Sprague-Dawley rat at 10 mg/kg, po administered as single dose via gavage measured at 8 hrs by LC-MS/MS analysis; assay type: ADME, organism-based; settings: read-out: Drug uptake
Cytochrome P450 2C19 = Cytochrome P450 2C19 (Homo sapiens, UniProt P33261); assay: Inhibition of CYP2C19 in human liver microsomes using (S)-mephenytoin as substrate preincubated for 5 mins followed by NADPH cofactor addition and measured after 40 mins by LC-MS/MS analysis; assay type: ADME
Cytochrome P450 2C19, sequence (P33261 whole entry): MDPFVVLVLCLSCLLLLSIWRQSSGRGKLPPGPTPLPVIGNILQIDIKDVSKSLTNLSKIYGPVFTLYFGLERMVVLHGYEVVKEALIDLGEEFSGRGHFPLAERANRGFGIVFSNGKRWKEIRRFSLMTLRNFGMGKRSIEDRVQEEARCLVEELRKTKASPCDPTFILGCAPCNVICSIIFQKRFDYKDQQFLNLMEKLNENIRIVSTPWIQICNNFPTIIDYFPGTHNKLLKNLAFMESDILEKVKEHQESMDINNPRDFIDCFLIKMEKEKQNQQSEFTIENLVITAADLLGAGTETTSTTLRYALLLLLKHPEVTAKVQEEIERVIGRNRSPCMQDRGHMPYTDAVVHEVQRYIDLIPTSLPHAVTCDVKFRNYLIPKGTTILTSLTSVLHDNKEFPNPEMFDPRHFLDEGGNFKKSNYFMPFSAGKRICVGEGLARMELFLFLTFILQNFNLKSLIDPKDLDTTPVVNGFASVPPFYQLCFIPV

[18] = Elimination half life in Sprague-Dawley rat at 3 mg/kg, iv or 10 mg/kg, po administered as single dose via gavage by LC-MS/MS analysis; assay type: ADME, organism-based; settings: in vivo, read-out: beta t1/2 (converted)
[19] = Ratio of AUC (0 to 48 hrs) in liver to plasma of Sprague-Dawley rat at 10 mg/kg, po administered as single dose via gavage by LC-MS/MS analysis; assay type: ADME, organism-based; settings: liver and plasma, read-out: Ratio AUC
Cytochrome P450 3A4 = Cytochrome P450 3A4 (Homo sapiens, UniProt P08684); assay: Inhibition of CYP3A4 in human liver microsomes using midazolam as substrate preincubated for 5 mins followed by NADPH cofactor addition and measured after 10 mins by LC-MS/MS analysis; assay type: ADME
Cytochrome P450 3A4, sequence (P08684 whole entry): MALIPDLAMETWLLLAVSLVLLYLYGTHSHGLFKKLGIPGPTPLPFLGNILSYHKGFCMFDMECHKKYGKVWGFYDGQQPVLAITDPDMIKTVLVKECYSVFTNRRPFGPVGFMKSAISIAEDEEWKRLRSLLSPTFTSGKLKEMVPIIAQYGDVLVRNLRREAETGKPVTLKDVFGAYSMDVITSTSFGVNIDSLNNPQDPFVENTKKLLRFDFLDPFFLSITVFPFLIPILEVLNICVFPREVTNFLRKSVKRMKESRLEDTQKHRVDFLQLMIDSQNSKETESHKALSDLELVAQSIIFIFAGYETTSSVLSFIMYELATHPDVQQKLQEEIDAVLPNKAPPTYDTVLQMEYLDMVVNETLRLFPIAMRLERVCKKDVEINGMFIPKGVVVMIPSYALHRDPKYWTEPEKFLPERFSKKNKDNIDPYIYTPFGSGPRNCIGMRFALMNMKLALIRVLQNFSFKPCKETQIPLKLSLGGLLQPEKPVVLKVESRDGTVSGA

[20] = Drug level in plasma of Sprague-Dawley rat at 10 mg/kg, po administered as single dose via gavage measured at 8 hrs by LC-MS/MS analysis; assay type: ADME, organism-based
[21] = Clearance in Sprague-Dawley rat at 3 mg/kg, iv or 10 mg/kg, po administered as single dose via gavage by LC-MS/MS analysis; assay type: ADME, organism-based; settings: in vivo
[22] = Drug level in brain of Sprague-Dawley rat at 10 mg/kg, po administered as single dose via gavage measured at 2 hrs by LC-MS/MS analysis; assay type: ADME, organism-based; settings: read-out: Drug uptake
[23] = Drug level in liver of Sprague-Dawley rat at 10 mg/kg, po administered as single dose via gavage measured at 48 hrs by LC-MS/MS analysis; assay type: ADME, organism-based; settings: read-out: Drug uptake
[24] = Volume of distribution at steady state in Sprague-Dawley rat at 3 mg/kg, iv or 10 mg/kg, po administered as single dose via gavage by LC-MS/MS analysis; assay type: ADME, organism-based; settings: in vivo, read-out: Vdss

SMILES | concentration at 2 h [1] | Kp [2] | Drug metabolism [3] | IC50 (Cytochrome P450 2C9) | AUC(0-t) at 48 h [5] | Cmax [7] | concentration at 24 h [8] | Drug metabolism [9] | Vd [10] | concentration at 2 h [11] | IC50 (Cytochrome P450 1A2) | half-life [12] | IC50 (Cytochrome P450 2D6) | concentration at 4 h [13] | concentration at 4 h [14] | AUC(0-t) at 48 h [15] | concentration at 8 h [16] | concentration at 8 h [17] | IC50 (Cytochrome P450 2C19) | half-life [18] | further results
Cc1cc(C(=O)N[C@H]2CC/C(=C\c3cccc(Oc4ccc(C(F)(F)F)cn4)c3)CC2)cnc1N (stereo not given) | 6.7 µM | 0.5 | 0.06 to 0.07 nmol/min/mg | 9.2 µM | 109 µM·h | 6.7 µM | 22 µM | 0.04 to 0.09 nmol/min/mg | 1.2 L/kg | 41 µM | > 12.5 µM | 17 h | > 12.5 µM | 37 µM | 4.8 µM | 1130 µM·h | 37 µM | 3.2 µM | > 12.5 µM | 17 h | concentration at 32 h [4]: 3 µM; concentration at 32 h [6]: 20 µM; Kp [19]: 6.9; IC50 (Cytochrome P450 3A4): > 12.5 µM; concentration at 8 h [20]: 5.3 µM; clearance [21]: 0.8 mL/min/kg; concentration at 2 h [22]: 2 µM; concentration at 48 h [23]: 9.1 µM; Vd [24]: 1.2 L/kg
O=C(N[C@H]1CC/C(=C\c2cccc(Oc3ccc(C(F)(F)F)cn3)c2)CC1)c1cccnc1 (stereo not given) | 7.2 µM | 1.5 | 0.04 nmol/min/mg | 2.7 µM | 47 µM·h | 7.2 µM | 7.7 µM | < 0.04 nmol/min/mg | 0.9 L/kg | 52 µM | > 10 µM | 5.1 h | > 10 µM | 43 µM | 3.3 µM | 580 µM·h | 32 µM | 4.7 µM | 4.6 µM | 5.1 h | Kp [19]: 10.5; IC50 (Cytochrome P450 3A4): 2.4 µM; concentration at 8 h [20]: 3 µM; clearance [21]: 2.4 mL/min/kg; concentration at 2 h [22]: 6.1 µM; Vd [24]: 0.9 L/kg
